Measured values taken from patent US20240090503A1, “FUNGICIDAL OXADIAZOLES AND THEIR MIXTURES” (FMC CORPORATION, priority 2020, published 2024).
Like-named read-outs stand apart in the source and are kept apart here.

Tests used:
[1] = tested on: Puccinia recondita f. sp. tritici (the causal agent of wheat leaf rust); assay: Test C: preventive spray on wheat seedlings, wheat leaf rust, visual disease rating; assay type: in vivo; conditions: for pest or weed control at 10 µg/mL: read-out: Test C disease control rating
From the text: (§1) General protocol for preparing test suspensions for Tests A-D: the test compounds were first dissolved in acetone in an amount equal to 3% of the final volume and then suspended at the desired concentration (in ppm) in acetone and purified water (50/50 mix by volume) containing 250 ppm of the surfactant PEG400 (polyhydric alcohol esters). The resulting test suspensions were then used in Tests A-D.
The test suspension was sprayed to the point of run-off on wheat seedlings. The following day the seedlings were inoculated with a spore suspension of Puccinia recondita f. sp. tritici; (the causal agent of wheat leaf rust) and incubated in a saturated atmosphere at 20° C. for 24 h, and then moved to a growth chamber at 20° C. for 6 days, after which time visual disease ratings were made.
(§2) The test results for Tests A-C presented in Table A below for compounds of Formula 1 illustrate the fungicidal activity of component (a) contributing to the plant disease control utility of compositions comprising component (a) in combination with component (b) according to the present invention. In the Table, a rating of 100 indicates 100% disease control and a rating of 0 indicates no disease control (relative to the controls). A dash (-) indicates the compound was not tested. The test suspensions were sprayed at the concentration listed in the column “Rate in ppm”, unless otherwise indicated. An asterisk “*” next to the rating indicates a 250 ppm test suspension was used, a double asterisk “**” next to the rating indicates a 100 ppm test suspension was used, and a triple asterisk “***” next to the rating indicates a 50 ppm test suspension was used.

[2] = tested on: Phakopsora pachyrhizi (the causal agent of Asian soybean rust); assay: Test A: preventive spray on soybean seedlings, Asian soybean rust, visual disease rating; assay type: in vivo; conditions: for pest or weed control at 10 µg/mL: read-out: Test A disease control rating
From the text: as §1
The test suspension was sprayed to the point of run-off on soybean seedlings. The following day the seedlings were inoculated with a spore suspension of Phakopsora pachyrhizi (the causal agent of Asian soybean rust) and incubated in a saturated atmosphere at 22° C. for 24 h and then moved to a growth chamber at 22° C. for 8 days, after which time visual disease ratings were made.
as §2

[3] = Puccinia recondita, 168 h, test suspension 10 ppm, wheat seedlings
[4] = Phakopsora pachyrhizi, 216 h, test suspension 10 ppm, soybean seedlings, 100 = 100% disease control, 0 = no control
[5] = test suspension 10 ppm, wheat seedlings
[6] = test suspension 10 ppm, soybean seedlings, 100 = 100% disease control, 0 = no control
[7] = test suspension 50 ppm, wheat seedlings
[8] = test suspension 50 ppm, soybean seedlings

O=c1ccc(Cl)nn1Cc1ccc(-c2noc(C(F)(F)F)n2)cc1 [Compound 4, 6-chloro-2-[[4-[5-(trifluoromethyl)-1,2,4-oxadiazol-3-yl]phenyl]methyl]-3(2H)-pyridazinone]
pest or weed control at 50 µg/mL ([1]; Puccinia recondita, 168 h, test suspension 50 ppm, wheat seedlings): 100% | pest or weed control at 50 µg/mL ([2]; Phakopsora pachyrhizi, 216 h, test suspension 50 ppm, soybean seedlings): 100%

COC(=O)c1ccn(Cc2ccc(-c3noc(C(F)(F)F)n3)cc2)c(=O)c1 [Compound 24, methyl 1,2-dihydro-2-oxo-1-[[4-[5-(trifluoromethyl)-1,2,4-oxadiazol-3-yl]phenyl]methyl]-4-pyridinecarboxylate]
pest or weed control at 10 µg/mL [1, 3]: 95% | pest or weed control at 10 µg/mL [2, 4]: 100%

COC(=O)c1cccc2nn(Cc3ccc(-c4noc(C(F)(F)F)n4)cc3)cc12 [Compound 36, methyl 2-[[4-[5-(trifluoromethyl)-1,2,4-oxadiazol-3-yl]phenyl]methyl]-2H-indazole-4-carboxylate]
pest or weed control at 10 µg/mL [1, 3]: 100% | pest or weed control at 10 µg/mL [2, 4]: 100%

COC(=O)c1cccc2c1cnn2Cc1ccc(-c2noc(C(F)(F)F)n2)cc1 [Compound 49, methyl 1-[[4-[5-(trifluoromethyl)-1,2,4-oxadiazol-3-yl]phenyl]methyl]-1H-indazole-4-carboxylate]
pest or weed control at 10 µg/mL [1, 3]: 100% | pest or weed control at 10 µg/mL [2, 4]: 100%

COC(=O)C1COC(Cc2ccc(-c3noc(C(F)(F)F)n3)cc2)=N1 (centres unmarked) [Compound 74, methyl 4,5-dihydro-2-[[4-[5-(trifluoromethyl)-1,2,4-oxadiazol-3-yl]phenyl]methyl]-4-oxazolecarboxylate]
pest or weed control at 10 µg/mL [1, 3]: 51% | pest or weed control at 10 µg/mL [2, 4]: 99%

NC(=O)C1COC(Cc2ccc(-c3noc(C(F)(F)F)n3)cc2)=N1 (centres unmarked) [Compound 75, 4,5-dihydro-2-[[4-[5-(trifluoromethyl)-1,2,4-oxadiazol-3-yl]phenyl]methyl]-4-oxazolecarboxamide]
pest or weed control at 10 µg/mL [1, 3]: 68% | pest or weed control at 10 µg/mL [2, 4]: 100%

CCOC(=O)c1cc(C)n(Cc2ccc(-c3noc(C(F)(F)F)n3)cc2)n1 [Compound 110, ethyl 5-methyl-1-[[4-[5-(trifluoromethyl)-1,2,4-oxadiazol-3-yl]phenyl]methyl]-1H-pyrazole-3-carboxylate]
pest or weed control at 10 µg/mL [1, 3]: 91% | pest or weed control at 10 µg/mL [2, 4]: 100%

FC(F)(F)c1nc(-c2ccc(Cn3ccc4ncccc43)cc2)no1 [Compound 136, 1-[[4-[5-(trifluoromethyl)-1,2,4-oxadiazol-3-yl]phenyl]methyl]-1H-pyrrolo[3,2-b]pyridine]
pest or weed control at 10 µg/mL [1, 3]: 68% | pest or weed control at 10 µg/mL [2, 4]: 100%

FC(F)(F)c1nc(-c2ccc(Cn3ncc4cccnc43)cc2)no1 [Compound 147, 1-[[4-[5-(trifluoromethyl)-1,2,4-oxadiazol-3-yl]phenyl]methyl]-1H-pyrazolo[3,4-b]pyridine]
pest or weed control at 10 µg/mL [1, 3]: 100% | pest or weed control at 10 µg/mL [2, 4]: 100%

CN(C)C(=O)C1COC(Cc2ccc(-c3noc(C(F)(F)F)n3)cc2)=N1 (centres unmarked) [Compound 178, 4,5-dihydro-N,N-dimethyl-2-[[4-[5-(trifluoromethyl)-1,2,4-oxadiazol-3-yl]phenyl]methyl]-4-oxazolecarboxamide]
pest or weed control at 10 µg/mL [1, 3]: 68% | pest or weed control at 10 µg/mL [2, 4]: 96%

COCCNC(=O)c1cc(C)n(Cc2ccc(-c3noc(C(F)(F)F)n3)cc2)n1 [Compound 183, N-(2-methoxyethyl)-5-methyl-1-[[4-[5-(trifluoromethyl)-1,2,4-oxadiazol-3-yl]phenyl]methyl]-1H-pyrazole-3-carboxamide]
pest or weed control at 10 µg/mL [1, 3]: 100% | pest or weed control at 10 µg/mL [2, 4]: 100%

O=C(NCCCl)c1coc(Cc2ccc(-c3noc(C(F)(F)F)n3)cc2)n1 [Compound 204, N-(2-chloroethyl)-2-[[4-[5-(trifluoromethyl)-1,2,4-oxadiazol-3-yl]phenyl]methyl]-4-oxazolecarboxamide]
pest or weed control at 10 µg/mL ([1]; Puccinia recondita, 168 h): 100% | pest or weed control at 10 µg/mL ([2]; Phakopsora pachyrhizi, 216 h): 100%

COC(=O)c1ccc2nn(Cc3ccc(-c4noc(C(F)(F)F)n4)cc3)nc2c1 [compound 23]
Test C disease control rating [1, 5]: 100% | Test A disease control rating [2, 6]: 100%

COc1cc(=O)n(Cc2ccc(-c3noc(C(F)(F)F)n3)cc2)nc1Cl [compound 27]
Test C disease control rating [1, 7]: 100% | Test A disease control rating [2, 8]: 100%

COc1cnn(Cc2ccc(-c3noc(C(F)(F)F)n3)cc2)c(=O)c1 [compound 28]
Test C disease control rating [1, 7]: 100% | Test A disease control rating [2, 8]: 100%

O=[N+]([O-])c1ccc2c(c1)c(Br)nn2Cc1ccc(-c2noc(C(F)(F)F)n2)cc1 [compound 30]
Test C disease control rating [1, 5]: 0% | Test A disease control rating [2, 6]: 25%

CSc1nn(Cc2ccc(-c3noc(C(F)(F)F)n3)cc2)nc1C [compound 31]
Test C disease control rating [1, 5]: 100% | Test A disease control rating [2, 6]: 100%

Cc1cc2c(cnn2Cc2ccc(-c3noc(C(F)(F)F)n3)cc2)cc1Br [compound 32]
Test C disease control rating [1, 5]: 68% | Test A disease control rating [2, 6]: 96%

Cc1cc2nn(Cc3ccc(-c4noc(C(F)(F)F)n4)cc3)cc2cc1Br [compound 33]
Test C disease control rating [1, 5]: 68% | Test A disease control rating [2, 6]: 100%

Cc1nn(Cc2ccc(-c3noc(C(F)(F)F)n3)cc2)c2cccc(Br)c12 [compound 34]
Test C disease control rating [1, 5]: 55% | Test A disease control rating [2, 6]: 71%

COC(=O)c1ccc2nn(Cc3ccc(-c4noc(C(F)(F)F)n4)cc3)cc2c1 [compound 35]
Test C disease control rating [1, 5]: 98% | Test A disease control rating [2, 6]: 100%

Cc1c2c(Br)cccc2nn1Cc1ccc(-c2noc(C(F)(F)F)n2)cc1 [compound 37]
Test C disease control rating [1, 5]: 86% | Test A disease control rating [2, 6]: 99%

FC(F)(F)c1nc(-c2ccc(Cn3cc4c(I)cc(Cl)cc4n3)cc2)no1 [compound 38]
Test C disease control rating [1, 5]: 68% | Test A disease control rating [2, 6]: 78%

FC(F)(F)c1nc(-c2ccc(Cn3ncc4c(I)cc(Cl)cc43)cc2)no1 [compound 39]
Test C disease control rating [1, 5]: 28% | Test A disease control rating [2, 6]: 44%

CSc1nnn(Cc2ccc(-c3noc(C(F)(F)F)n3)cc2)c1C [compound 40]
Test C disease control rating [1, 5]: 92% | Test A disease control rating [2, 6]: 100%

COC(=O)c1ccc2cnn(Cc3ccc(-c4noc(C(F)(F)F)n4)cc3)c2c1 [compound 41]
Test C disease control rating [1, 5]: 98% | Test A disease control rating [2, 6]: 100%

COC(=O)c1ccc2cn(Cc3ccc(-c4noc(C(F)(F)F)n4)cc3)nc2c1 [compound 42]
Test C disease control rating [1, 5]: 92% | Test A disease control rating [2, 6]: 100%

CON(C)C(=O)c1nn(Cc2ccc(-c3noc(C(F)(F)F)n3)cc2)c2ccccc12 [compound 43]
Test C disease control rating [1, 5]: 96% | Test A disease control rating [2, 6]: 100%

N#CCNC(=O)c1nn(Cc2ccc(-c3noc(C(F)(F)F)n3)cc2)c2ccccc12 [compound 44]
Test C disease control rating [1, 5]: 95% | Test A disease control rating [2, 6]: 100%

CNC(=O)c1nn(Cc2ccc(-c3noc(C(F)(F)F)n3)cc2)c2ccccc12 [compound 45]
Test C disease control rating [1, 5]: 99% | Test A disease control rating [2, 6]: 100%

COCCNC(=O)c1nn(Cc2ccc(-c3noc(C(F)(F)F)n3)cc2)c2ccccc12 [compound 46]
Test C disease control rating [1, 5]: 100% | Test A disease control rating [2, 6]: 100%

COC(=O)c1cccc2cnn(Cc3ccc(-c4noc(C(F)(F)F)n4)cc3)c12 [compound 47]
Test C disease control rating [1, 5]: 74% | Test A disease control rating [2, 6]: 100%

COC(=O)c1ccc2c(cnn2Cc2ccc(-c3noc(C(F)(F)F)n3)cc2)c1 [compound 48]
Test C disease control rating [1, 5]: 89% | Test A disease control rating [2, 6]: 100%

COC(=O)c1cccc2cn(Cc3ccc(-c4noc(C(F)(F)F)n4)cc3)nc12 [compound 50]
Test C disease control rating [1, 5]: 28% | Test A disease control rating [2, 6]: 13%
